Experimental data as given in patent publication US20260364186A1, “Chemical Conjugates, Compositions, and Methods of Preparation and Use Thereof” (Transfection Holdings Limited, priority 2022, published 2026).
“Also recorded” adds a separate entry of the source.

Legend:
Type in all cases: cell-based, human
[1] = system: NZM11 (BRAF V600E) melanoma cells; test: Time course of uptake by FACS (Example 5); conditions: 200 nM; for uptake / intensities, in words: NZM11, time course
Protocol: FIG. 5A: Time course of uptake for 124, 125, 131, 132 conjugate compounds. Tests were performed using 200 nM each conjugate and 5, 30, or 60 minute incubation with melanoma cell line NZM11 (BRAF V600E mutant metastatic melanoma). Mean fluorescent intensities (MFI), n=300 mean±SD. The cells were sorted by FACS.
FIG. 5B: Time course of uptake for 124 and 3-azido BODIPY FL. Tests were performed using 200 nM each compound and 1 or 3 hour incubation with melanoma cell line NZM11 (BRAF V600E mutant metastatic melanoma). Mean fluorescent intensities (MFI). n=2000-3000 mean±SD. The cells were sorted by FACS.
Materials and methods: NZM11 cells were suspended at […] dispensed into 96 well plates and left to settle for 48 hours. 10 μL of 10 mM stock solutions in DMSO from the conjugates coupled to BODIPY were diluted with HBSS to afford 400 nM solution. Then, 400 nM compounds and DMSO solutions were diluted 1:1 with MEMα media to afford 200 nM solutions. After 48 hours the media was removed from the 96 well plates and 200 μL of 200 nM conjugates solutions dispensed to each well (in duplicate) and incubated for 5 minutes, 30 minutes and 60 minutes at 37 °C (for the first test) or 60 minutes and 3 hours (for the second test). After indicated incubation time, the media was removed and cells washed with PBS. 100 μL of TrypLE trypsin (ThermoFisher Scientific) were added to each well and incubated for 6.5 minutes at 37 °C after which, 100 μL of MEMα media were added and samples were sorted through FACS biosort. FACS results output represented the mean of the fluorescence intensities (in arbitrary units) measured for cells sorted in every sample. Uptake rate was calculated by the equation: Uptake rate=(MFI2−MFI1)/(T2−T1)
whereby: MFI=mean fluorescent intensities; T=time (at which time the sample was taken); Uptake rate units: fluorescence intensities units per minute.

[2] = system: NZM40 (NRAS Q16H) melanoma cells; test: FACS uptake of BODIPY FL conjugates, 200 nM, 5 min (Example 2)
Protocol: FIG. 2. Conjugate compounds coupled to BODIPY FL were tested for uptake using 200 nM each conjugate and 5 minute incubation with melanoma cell line NZM11 (BRAF V600E mutant metastatic melanoma), melanoma cell line NZM40 (NRAS Q16H mutant metastatic melanoma) and melanoma cell line NZM9 (BRAF and NRAS wildtype metastatic melanoma). Mean fluorescent intensities (MFI). 2,000 cells (NZM11), 1,000 cells (NZM40) and 500-1,000 cells (NZM9). Cells were sorted by FACS. Bars represent mean±SD. Results were from a single experiment done in triplicate.
NZM40 is an adherent cell line which was originally derived from a metastatic melanoma from a patient, in 2004. This human metastatic melanoma is identified with code CBA-1381 from Cell bank Australia. […] Ras is a superfamily of proteins implicated in cell growth, survival and differentiation. NRAS (neuroblastoma rat sarcoma) was the first oncogene recognized in melanoma and mutations in NRAS account for 20% of all melanomas. NRAS mutations primarily occur at position 61 and involve amino acid change from glutamine (Q) to arginine (R), lysine (K), leucine (L) or histidine (H). These mutations block NRAS into a GTP-bound state damaging its GTPase activity (FIG. 1). Patients are usually older (>55 years) with previous UV exposure. See Garcia-Alverez et al., 2021.
For screening, NZM11, NZM40 and NZM9 cells were suspended at […] dispensed into 96 well plates and left to settle for 48 hours. Then, 10 μL of 10 mM stock solutions in DMSO for the conjugates were diluted with HBSS to afford 400 nM solution. Next, 400 nM compounds and DMSO solutions were diluted 1:1 with MEMα media to afford 200 nM solutions. After 48 hours the media was removed from the 96 well plates and 200 μL of 200 nM conjugates solutions dispensed to each well (in triplicate) and incubated for 5 minutes at 37 °C. After 5 minutes, the media was removed and cells washed with PBS. Then, 100 μL of TrypLE trypsin (ThermoFisher Scientific) were added to each well and incubated for 5 minutes at 37 °C after which, 100 μL of MEMα media were added and samples were sorted through FACS biosort. The FACS results output were represented as the mean of the fluorescence intensities (in arbitrary units) measured for cells sorted in every sample.

[3] = system: Jurkat cells; test: FACS uptake of BODIPY FL conjugates in Jurkat cells (Example 3); conditions: 200 nM
Protocol: FIG. 3B: Conjugate compounds coupled to BODIPY FL were tested for uptake using 200 nM each conjugate and 5 minute incubation with immortalized T lymphocyte cell line, Jurkat cells. Mean fluorescent intensities (MFI). 1,000 cells sorted by FACS. Bars represent mean±SD. Results represent a single experiment done in duplicate.
Materials and methods: Jurkat cells have been previously shown to be defective in the expression of two lipid phosphatases, PTEN (phosphatase and tensin homologue) and SHIP (SH2-domain-containing inositol polyphosphate 5′ phosphatase). The biological implications of SHIP deficiency in T cells remain under evaluation, but the loss of PTEN leads to activation of the phosphatidylinositol 3-kinase (PI3K)-signalling pathway. See Abraham and Weiss, 2004. This activation of PI3K protein is also on NZM40 melanoma cell line, and represents a key mutation for its sustained proliferation. See Silva et al., 2017. For these experiments, Jurkat cells were diluted on RPMI media (supplemented with 10% FBS+1% penicillin-streptomycin) to afford 400 cells/μL. 2 μL of 100 μM stock solutions in DMSO from 138 and pantothenic acid/pantothenic acid derivatives coupled to BODIPY were diluted with 998 μL of RPMI media (supplemented with 10% FBS+1% penicillin-streptomycin) to afford 200 nM solution. 100,000 cells were dispensed to Eppendorf tubes, centrifuged for 1.5 min at 5000 rcf and the supernatant was removed. The cells then were incubated with 500 μL of solutions at 200 nM for 4.5 min and 37 °C. After the incubation time, cells were centrifuged for 1.5 minutes at 5000 rcf. Supernatant was removed and cell pellet re-suspended in 200 μL fresh RPMI media, transferred to 96 well-plate and run on FACS machine, approximately 1,000 cells analysed.

| SMILES | lower intensities at 3 hour than 60 minute incubation ([1]; NZM11) [%] | time after which uptake presents saturation ([1]; NZM11) [min] | time at which highest intensities were reached ([1]; NZM11) [min] | uptake / intensities, in words [1] | uptake rate ([1]; after five minutes) [units per minute] | uptake rate ([1]; at 30 minutes) [units per minute] | uptake rate ([1]; at 60 minutes) [units per minute] | higher fluorescence intensities compared to enantiomer 126 [2] [times] | uptake (fluorescence intensities) [2] | uptake / targeting [3] | intensities compared to 125 and 127 ([3]; vs 125 and 127) | times lower uptake rate, as compared to 124 ([1]; NZM11) [times] |
| --- | --- | --- | --- | --- | --- | --- | --- | --- | --- | --- | --- | --- |
| CC1=CC(C)=[N+]2C1=Cc1ccc(CCCn3cc(CCNC(=O)/C=C/NC(=O)[C@H](O)C(C)(C)CO)nn3)n1[B-]2(F)F [Compound 124] | 4 | 60 | 60 | outstanding uptake; also recorded: rapid at the first minutes of incubation | 45 | 23 | 1 | 13 | highest intensities; also recorded: best targeting activity | highest uptake | two times higher | – |
| CC1=CC(C)=[N+]2C1=Cc1ccc(CCCn3cc(CCNC(=O)/C=C/NC(=O)[C@@H]4OC(C)(C)OCC4(C)C)nn3)n1[B-]2(F)F [Compound 125, (R,E)-N-((((3-[4,4-difluoro-5,7-dimethyl-4-bora-3a,4a-diaza-s-indacene-3-yl]propyl)-1H-1,2,3-triazol-4-yl)eth-ylamino)-3-oxoprop-1-enyl)-2,2,5,5-tetramethyl-1,3-dioxane-4-carboxamide] | – | – | 60 | – | – | – | – | – | selective uptake; also recorded: significant uptake | showed targeting | – | 7 |
| CC1=CC(C)=[N+]2C1=Cc1ccc(CCCn3cc(CCNC(=O)/C=C\NC(=O)[C@H]4OC(C)(C)OCC4(C)C)nn3)n1[B-]2(F)F [Compound 131, (Z)—N-((((3-[4,4-Difluoro-5,7-dimethyl-4-bora-3a,4a-diaza-s-indacene-3-yl]propyl)-1H-1,2,3-triazol-4-yl)ethylamino)-3-oxoprop-1-enyl)-2,2,5,5-tetramethyl-1,3-dioxane-4-carboxamide] | – | – | – | non-significant intensities | – | – | – | – | showed selectivity | showed targeting | – | – |
